These results are taken from patent US6294547A, “Naphthyridine deratives or salts thereof” (Nippon Kayaku Kabushiki Kaisha, priority 1997, dated 2001).

Structures can show the parent of a compound that is named as a salt.

For test [1], the target named is T1, NK-2 receptors (Rattus norvegicus, UniProt P16610).
T1 construct: Duodenums isolated from Fischer strain male rats were homogenized; from tissue; host or cells: duodenum membranes of male Fischer rats
T1 sequence (P16610 1-390): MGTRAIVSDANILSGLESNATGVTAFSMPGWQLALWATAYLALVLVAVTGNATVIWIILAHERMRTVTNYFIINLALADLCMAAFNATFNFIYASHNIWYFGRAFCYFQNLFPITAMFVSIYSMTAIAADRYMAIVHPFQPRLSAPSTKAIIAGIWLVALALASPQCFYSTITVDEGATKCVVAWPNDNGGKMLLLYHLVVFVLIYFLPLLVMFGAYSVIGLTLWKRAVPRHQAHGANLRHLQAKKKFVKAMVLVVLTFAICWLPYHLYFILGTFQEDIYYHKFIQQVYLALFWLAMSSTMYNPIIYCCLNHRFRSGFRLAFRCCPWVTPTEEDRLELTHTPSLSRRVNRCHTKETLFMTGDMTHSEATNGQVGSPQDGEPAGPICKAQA
Put plainly: Binding to NK-2 receptors (inhibition of radioactive 125I-neurokinin A binding). In kind it is Fischer strain male rats (duodenum membranes). The conditions noted are these: rat duodenum membrane; 125I-neurokinin A 1×10^-9 M; 90 min, room temperature; read-out: IC50 of drugs in binding of radioactive neurokinin A. On the procedure: Duodenums isolated from Fischer strain male rats were homogenized in 50 mM Tris-hydrochloric acid buffer (pH 7.4) containing saccharose (100 mg/ml) and ethylenediaminetetraacetic acid (1 mM), and the resulting homogenate was centrifuged at 48,000 g and 4° C. for 20 minutes. The pellet thus obtained was washed three times with 10 times as much 50 mM Tris-hydrochloric acid buffer (pH 7.4) containing KCl (300 mM) and ethylenediaminetetraacetic acid (10 mM) as the pellet by volume, and the resulting membrane preparation was suspended in 10 times as much 50 mM Tris-hydrochloric acid buffer (pH 7.4) as the membrane preparation by volume and stored at -80° C. until use. The membrane preparation (20 mg/ml) was incubated together with a radioactive ligand ^125 I-neurokinin A (1×10^-9 M) at room temperature for 90 minutes in the presence of each drug or a solvent therefor in 50 mM Tris-hydrochloricacid buffer (pH 7.4) containing bovine serum albumin (10 mg/ml), bacitracin (40 μg/ml), leupeptin (4 μg/ml), chymostatin (50 μg/ml), antipain (1×10^-4 M) and MnCl2 (1 mM). […] Then, radioactivity in the filter was measured with a gamma counter. The 50% inhibitory concentration (IC50) of the drug was determined by means of a regression line by considering radioactivity in the presence of Nle10 neurokinin A (4-10) (3×10^-6 M) to be due to nonspecific binding, and measuring the rate of inhibition of specific binding by the drug by carrying out a control experiment using the solvent alone.

The test system of test [2] is NK-2 receptors. The experiment in a line: Antagonism for NK-2 receptors (neurokinin A induced contraction of isolated trachea). In kind it is cell-based, Hartley strain male guinea pigs. The following applies: concentration 5 × 10^-9 M; neurokinin A 1×10^-9 M; guinea pig trachea; 110 min incubation. As for the experimental part:
Hartley strain male guinea pigs were killed by a blow on the head and blood-letting, and the tracheas were isolated. Specimens each composed of five slices of the trachea were prepared, and suspended at a tension of 0.5 gw in a magunus bath with an internal volume of 15 ml containing Krebs-Henseleit solution of 37° C. while introducing a mixed gas of 95% O2 +5% CO2 into the bath. As the Krebs-Henseleit solution, that containing indomethacin ([…]) was used for preventing the participation of intrinsic prostaglandins. After confirming the maximum degree of contraction of each specimen by the use of methacholine,a drug or a solvent therefor was added to the solution, followed by incubation for 110 minutes, and neurokinin A (1×10^-9 M) was allowed to act on the specimen. Phosphoramidon (1×10^-5 M) for inhibiting the degradation of neurokinin A and (±)CP-96345 (3×10^-7 M) for preventing the participation of NK-1 receptors were added 30 minutes and 20 minutes, respectively, before the addition of neurokinin A. The degree of contraction due to neurokinin A was converted to the percentage based on the maximum degree of contraction of the specimen, and then the rate of inhibition by the drug was determined relative to the percentage of contraction of the other specimen used in the case of adding the solvent.

`CN(CC(CCN1CCc2nc3c(cc2C1)CCCC3)c1ccc(Cl)c(Cl)c1)C(=O)c1ccccc1` (single isomer, unassigned) [Example 25, 2-[(-)-4-(N-benzoyl-N-methyl)amino-3-(3,4-dichlorophenylbutyll-1,2,3,4,6,7,8,9-octahydro-benzo[b][1,6]naphthyridine fumarate]: the IC50 at NK-2 receptors [1] amounted to 0.056 µM. Moreover, the “Inhibition rate, neurokinin A induced contraction” value with NK-2 receptors [2] is given as 89.1%.
